Laboratory results from article PMC4792926, “G9a-mediated methylation of ERα links the PHF20/MOF histone acetyltransferase complex to hormonal gene expression” (Nature Communications, 2016).
Ends that are not written are not given here.

Key:
[1] = system: ERα target genes (GREB1, PR, TFF1); experiment: qPCR of E2-induced ERα target gene expression in MCF-7 cells; assay type: cell-based, human; conditions: for fold induction of GREB1, PR and TFF1: control (shCtrl) MCF-7, relative to untreated cells
Description: (§1) Human MCF-7, T-47D, U2OS and HEK293T cells (ATCC) were cultured in DMEM (Cellgro) supplemented with 10% fetal bovine serum (FBS, Sigma). For G9a inhibitor treatment, BIX-01294 (Sigma) was added to the medium, at the indicated concentrations, 24 h before the cells were collected. For shRNA knockdown, 293T cells were co-transfected with pMD2.G and pPAX2 (Addgene) together with pLKO-shRNA constructs or a non-targeting pLKO-shRNA (pLKO-shCtrl). Viral supernatants were harvested after 48 h. For infections, MCF-7 or T-47D cells were incubated with viral supernatants in the presence of 8 μg ml^−1 polybrene. After 48 h, puromycin (2 μg ml^−1) was added to the DMEM. Cells were grown, with selection for 5–7 days to select for stable knockdown cells before oestrogen treatment. For oestrogen treatment, cells were starved in phenol red-free DMEM supplemented with 10% charcoal-stripped FBS (Sigma) for 3–4 days, and 10 nM 17β-estradiol (Sigma) or ethanol (vehicle) were added to the medium (3 or 6 h for gene expression studies, and 15 and 45 min for ChIP experiments) before the cells were collected.
(§2) Reverse transcription and real-time PCR were performed as described previously. mRNA was prepared using the RNeasy Plus kit (Qiagen) and reverse transcribed using the First Strand Synthesis kit (Invitrogen). Quantitative real-time RT–PCR (qPCR) was performed on an ABI 7500-FAST Sequence Detection System using the Power SYBR Green PCR Master Mix (Applied Biosystems). Gene expression was calculated following normalization to GAPDH levels using the comparative Ct (cycle threshold) method and is shown as ‘Fold' relative to the expression of each gene in the control cells without E2 treatment that was arbitrarily set as ‘1'. The primer sequences used for RT–PCR are listed in Supplementary Table 5.

[2] = system: ERα target genes (GREB1, PR, TFF1); experiment: qPCR of E2-induced ERα target gene expression in T-47D cells; assay type: cell-based, human; conditions: 10 nM E2, 3 or 6 h; G9a-depleted T-47D
Description: as §1, with “For oestrogen treatment, cells were starved in phenol red-free DMEM supplemented with 10% charcoal-stripped FBS (Sigma) for 3–4 days, and 10 nM 17β-estradiol (Sigma) or ethanol (vehicle) were added to the medium (3 or 6 h for gene expression studies, and 15 and 45 min for ChIP experiments) before the cells were collected.” left out
as §2, with “The primer sequences used for RT–PCR are listed in Supplementary Table 5.” left out

MCF-7 cells = experiment: RNA-seq in MCF-7 cells ±E2; assay type: cell-based, human; conditions: 10 nM E2, 3 h
Description: as §1, with “For oestrogen treatment, cells were starved in phenol red-free DMEM supplemented with 10% charcoal-stripped FBS (Sigma) for 3–4 days, and 10 nM 17β-estradiol (Sigma) or ethanol (vehicle) were added to the medium (3 or 6 h for gene expression studies, and 15 and 45 min for ChIP experiments) before the cells were collected.” left out
RNA-seq samples were sequenced using the Illumina Hiseq 2000, and raw reads were mapped to the human reference genome (hg19) and transcriptome using the RNA-seq unified mapper. Read counts for each transcript were calculated using HTseq v0.6.1 using default parameters. […] For the PHF20 knockdown data set, the common dispersion and tag wise dispersion were calculated using the edgeR ‘estimateCommonDisp' and ‘estimateTagwise-Disp' functions, respectively. […]

[3] = system: H4K16ac on ERα target gene promoters; experiment: Histone H4K16ac ChIP-qPCR in MCF-7 cells; assay type: cell-based, human
Description: as §1
(§3) ChIP analysis was performed essentially as described previously. Briefly, cells were crosslinked with 1% formaldehyde for 10 min at room temperature, and the reaction was stopped with 125 mM glycine. Nuclei were isolated by resuspending the cells in swelling buffer containing 5 mM PIPES, pH 8.0, 85 mM KCl, 1% NP-40 and complete protease inhibitors for 20 min at 4 °C. The isolated nuclei were resuspended in nuclei lysis buffer (50 mM Tris, pH 8.0, 10 mM EDTA, 1% SDS) and sonicated using a Bioruptor Sonicator (Diagenode). Samples were immunoprecipitated with 2–4 μg of the appropriate antibodies overnight at 4 °C. Immunoprecipitates were washed twice with dialysis buffer (50 mM Tris pH 8.0, 2 mM EDTA, 0.2% Sarkosyl) and four times with IP wash buffer (100 mM Tris, pH 8.0, 500 mM LiCl, 1% NP-40 and 1% deoxycholic acid sodium salt). After reverse crosslinking was performed, the DNA was eluted and purified using a PCR purification kit (Qiagene). The primer sequences used for ChIP analyses are listed in Supplementary Table 4.

[4] = system: ERα on GREB1 and PR promoters; experiment: ERα ChIP-qPCR in MCF-7 cells; assay type: cell-based, human; conditions: E2, 15 and 45 min
Description: as §1
as §3, with “The primer sequences used for ChIP analyses are listed in Supplementary Table 4.” left out

ERαK235me2 = experiment: Immunofluorescence of ERαK235me2 in MCF-7 cells; assay type: cell-based, human; conditions: 10 nM 17β-estradiol, 45 min; E2-deprived MCF-7
Description: MCF-7 cells were E2-depleted for 3 days and treated with 10 nM 17β-estradiol or ethanol for 45 min. Cells were then fixed in 4% formaldehyde, washed and permeabilized in 0.5% Triton X-100 on ice for 10 min. Cells were then blocked in 3% BSA, incubated with primary antibodies in 3% BSA for 2 h, washed, and probed with fluorescein-conjugated secondary antibodies in 3% BSA for 1 h. Cells on the slide were then washed, covered with mounting medium (with DAPI) and observed using an Olympus confocal microscope FluoView FV1000.
(d) ERαK235, but not K303, is required for the coactivator function of G9a in an estrogen response element- (ERE) driven luciferase assay. U2OS cells were cotransfected with G9a, NCOA2 and ERα (WT, K235R, or K303R) together with an ERE-Firefly luciferase and a Renilla luciferase, and the luciferase activity was determined 24 hrs after E2 treatment.
(e) G9a has a catalytic activity-dependent and independent coactivator activity of ERα. U2OS cells were cotransfected with ERα, NCOA2 and […] (WT or H1113K) together with an ERE-Firefly luciferase and a Renilla luciferase, and the luciferase activity was determined as described in the Method section.
(f) Both the E2-dependent and E2-independent ERα coactivator functions of G9a require the ERαK235 residue. […]

53BP1 Tudor = experiment: Chromatin-associated domain array (CADOR 5.0), 53BP1 Tudor; assay type: binding; conditions: biotinylated peptide on CADOR 5.0; K235 methylation-dependent
Description: (§4) For peptide pulldown assays, 1 μg of biotinylated histone and ERα peptides with or without methylation were incubated with 1 μg GST-PHF20 Tudor in binding buffer (50 mM Tris-HCl, pH 7.5, 300 mM NaCl, 0.1% NP-40 and 1 mM PMSF) for overnight. Streptavidin beads (GE Healthcare) were added into the mixture and incubated for 1 h with rotation. The beads were then washed three times, and analysed by SDS−PAGE and western blotting. For the protein domain array, the CADOR 5.0 protein domain array was probed with biotinylated ER peptides as described previously. The protein domains spotted on the CADOR 5.0 array are listed in the Supplementary Fig. 5. […]
(§5) Recombinat Proteins Construct Sources a - Cheryl Arrowsmith d - Jiemin W ong g - Albert Jeltsch j - Judd Rice n - Alla Grishok b - Subhashini Sadasivem e - Or Gozani h - Yi Zhang k - Marc Timmers o - Olli Silvennoinen c - Jocelyn Coté f - Thomas Jenuwein i - Adrian Bird l - Michelle Barton p - Logan Donaldson […]
(§6) Supplementary Figure 5. Domain layout of the Chromatin-Associated Domain Array […]
(§7) (1 picture or pasted object on this page, not shown here)

S. pombe SPF30 Tudor = experiment: Chromatin-associated domain array (CADOR 5.0), SPF30 Tudor; assay type: binding; conditions: biotinylated peptide on CADOR 5.0; K235 methylation-dependent
Description: as §4, §5, §6, §7

[5] = system: PHF20/PHF20L Tudor domains; experiment: Chromatin-associated domain array (CADOR 5.0), PHF20/PHF20L Tudors; assay type: binding; conditions: biotinylated peptide on CADOR 5.0; K235 methylation-dependent
Description: as §4, §5, §6, §7

PHF20 Tudor [6] = experiment: Peptide pull-down with GST-PHF20 Tudor; assay type: binding, human; conditions: 1 μg biotinylated peptide, 1 μg GST-PHF20 Tudor, 50 mM Tris-HCl pH 7.5, 300 mM NaCl, 0.1% NP-40, overnight
Description: (§8) The pGEX constructs encoding human G9a, ERα and ERα fragments including AF1 (aa 1–190), DBD (aa 175–250), hinge (aa 251–310), DBD+hinge (aa 175–310), LBD (aa 305–596) and the second Tudor domain of PHF20 (aa 58–148) were expressed in E. coli Rosetta (DE3) pLysS cells. After induction with IPTG (0.5 mM) for 16–18 h at 18 °C, cells were collected by centrifugation at 5,000g, lysed by sonication and purified using Glutathione Sepharose 4B beads (GE Healthcare). For the NMR titration assays, PHF20 Tudor was expressed in the ^15NH4Cl-supplemented (Sigma) minimal media, and the GST tag was cleaved with PreScission protease, and the cleaved protein was concentrated using Millipore concentrators (Millipore).
(§9) For peptide pulldown assays, 1 μg of biotinylated histone and ERα peptides with or without methylation were incubated with 1 μg GST-PHF20 Tudor in binding buffer (50 mM Tris-HCl, pH 7.5, 300 mM NaCl, 0.1% NP-40 and 1 mM PMSF) for overnight. Streptavidin beads (GE Healthcare) were added into the mixture and incubated for 1 h with rotation. The beads were then washed three times, and analysed by SDS−PAGE and western blotting. For the protein domain array, the CADOR 5.0 protein domain array was probed with biotinylated ER peptides as described previously. The protein domains spotted on the CADOR 5.0 array are listed in the Supplementary Fig. 5.

[7] = system: PHF20 Tudor W97A and Y103A mutants; experiment: Peptide pull-down with PHF20 Tudor mutants; assay type: binding, human; conditions: W97A and Y103A mutants of PHF20 Tudor
Description: as §8, §9

PHF20 Tudor [8] = experiment: 1H,15N HSQC NMR titration of PHF20 Tudor; assay type: binding, human
Description: as §8
The ^1H,^15N HSQC spectra of 0.2 mM uniformly ^15N-labelled PHF20 Tudor (in 25 mM Tris-HCl, pH 7.5 buffer, 150 mM NaCl, 5 mM dithiothreitol and ∼8% D2O) were collected at 298 K on a Varian INOVA 600 MHz spectrometer. Binding was monitored by titrating unmodified ERα and ERαK235me2 peptides (aa 228–239) against the PHF20 Tudor domain. NMR data were processed and analysed with NMRPipe and NMRDraw as previously described. NMR assignments for PHF20 Tudor were taken from the Biological Magnetic Resonance Data Bank (BMRB 17673)[31].

## C[C@]12CC[C@@H]3c4ccc(O)cc4CC[C@H]3[C@@H]1CC[C@@H]2O [E2, 17β-estradiol]
[1]; 10 nM E2, 3 or 6 h, PHF20 knockdown MCF-7
  E2-induced activation of GREB1 and PR on PHF20 depletion: drastically decreased
[1]; 10 nM E2, 3 h
  fold induction of GREB1, PR and TFF1: ~4 fold
[1]; 10 nM E2, 6 h
  fold induction of GREB1, PR and TFF1: ~6 fold
[2]
  E2-induced gene activation on G9a depletion: drastically decreased
MCF-7 cells
  number of E2-activated genes: 774 genes
[3]; E2, 15 and 45 min, G9a-depleted MCF-7
  E2-dependent H4K16ac and ERα on GREB1 and PR promoters (H4K16ac): markedly reduced
[3]; E2, 15 and 45 min, PHF20-depleted MCF-7
  E2-dependent increase of H4K16ac on GREB1 and PR promoters: greatly diminished
[3]; E2, 15 and 45 min, control MCF-7
  H4K16ac levels on GREB1 and PR promoters: dramatic increase in H4K16ac levels
[3]; E2, MCF-7
  H4K16ac on genes not regulated by PHF20: no apparent H4K16ac signals were detected
[4]; G9a-depleted MCF-7
  levels of ERα on GREB1 and PR promoters: markedly reduced
[4]; PHF20 knockdown MCF-7
  ERα occupancy on the promoters of GREB1 and PR: no or minimal ERα occupancy was detected
[4]; control MCF-7
  ERα on the promoters of GREB1 and PR: E2-dependent increase of ERα on the promoters of GREB1 and PR
ERαK235me2
  ERαK235me2 level: increased upon E2 stimulation

## ERα peptide (aa 227–244) bearing dimethylated K235: ERα peptide (aa 227–244) bearing dimethylated K235, biotinylated, used to probe the CADOR array (CTIDKNRRK(Me2)SCQACRLRK; cysteine pairing not given here; also: biotin, end not given here)
53BP1 Tudor
  recognition by 53BP1 Tudor: recognized the ERα peptide in a K235 methylation-dependent manner
S. pombe SPF30 Tudor
  recognition by S. pombe SPF30 Tudor: recognized the ERα peptide in a K235 methylation-dependent manner
[5]
  recognition by PHF20/PHF20L Tudor: recognized the ERα peptide in a K235 methylation-dependent manner

## ERαK235me2 peptide: ERα peptide dimethylated at K235; aa 228–239 in NMR titrations, biotinylated in pull-downs (TIDKNRRK(Me2)SCQA; also: biotinylated in pull-downs, end not given here; UniProt P03372 228-239, looked up, fragment)
PHF20 Tudor [6]
  interaction with PHF20 Tudor (pull-down): strong interaction
[7]
  binding to PHF20 Tudor W97/Y103 mutants (pull-down): abolished the binding
PHF20 Tudor [8]; 0.2 mM 15N-labelled PHF20 Tudor, 25 mM Tris-HCl pH 7.5, 150 mM NaCl, 298 K, 600 MHz
  chemical shift changes of PHF20 Tudor: large chemical shift changes
PHF20 Tudor [8]; HSQC titration, 0.2 mM PHF20 Tudor, pH 7.5, 298 K
  backbone amide resonances A95, W97, Y103, A105, V118, F120, D122-Q126 of PHF20 Tudor: significant shifting and broadening
